Measurements as given in PubChem BioAssay (NCI).
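Exposure lasted 48 hours, with cells grown in 96-well plates and compounds tested at five concentrations. The concentration for 50% growth inhibition is given as GI50. TGI: total growth inhibition.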

Legend:
Experiment in all cases: NCI anticancer screen, dose series, 48 h
MOLT-4 leukemia = test system: MOLT-4 leukemia
OVCAR-5 ovarian = test system: OVCAR-5 ovarian
NCI-H23 lung = test system: NCI-H23 lung
CCRF-CEM leukemia = test system: CCRF-CEM leukemia
HOP-62 NSCLC = test system: HOP-62 NSCLC
SNB-75 CNS = test system: SNB-75 CNS
SF-268 CNS = test system: SF-268 CNS
HL-60(TB) leukemia = test system: HL-60(TB) leukemia
MDA-MB-435 = test system: MDA-MB-435
RPMI-8226 leukemia = test system: RPMI-8226 leukemia
SK-MEL-2 melanoma = test system: SK-MEL-2 melanoma
OVCAR-4 ovarian = test system: OVCAR-4 ovarian
RXF 393 renal = test system: RXF 393 renal
ACHN renal = test system: ACHN renal
NCI/ADR-RES ovarian = test system: NCI/ADR-RES ovarian
M14 melanoma = test system: M14 melanoma
SK-MEL-28 melanoma = test system: SK-MEL-28 melanoma
T-47D breast = test system: T-47D breast
K-562 leukemia = test system: K-562 leukemia
MALME-3M melanoma = test system: MALME-3M melanoma
NCI-H460 lung = test system: NCI-H460 lung
SR leukemia = test system: SR leukemia
U251 CNS = test system: U251 CNS
SW-620 colon = test system: SW-620 colon
HOP-92 NSCLC = test system: HOP-92 NSCLC
IGROV1 ovarian = test system: IGROV1 ovarian
786-0 renal = test system: 786-0 renal
COLO 205 colon = test system: COLO 205 colon
A549 NSCLC = test system: A549 NSCLC
SK-OV-3 ovarian = test system: SK-OV-3 ovarian
CAKI-1 renal = test system: CAKI-1 renal
SK-MEL-5 melanoma = test system: SK-MEL-5 melanoma
MCF7 breast = test system: MCF7 breast
UACC-62 melanoma = test system: UACC-62 melanoma
OVCAR-3 ovarian = test system: OVCAR-3 ovarian
HCT-116 colon = test system: HCT-116 colon
SN12C renal = test system: SN12C renal
MDA-MB-231 breast = test system: MDA-MB-231 breast
HS 578T breast = test system: HS 578T breast
SNB-19 CNS = test system: SNB-19 CNS
NCI-H226 lung = test system: NCI-H226 lung
DU-145 prostate = test system: DU-145 prostate
UACC-257 melanoma = test system: UACC-257 melanoma
HT29 colon = test system: HT29 colon
SF-295 CNS = test system: SF-295 CNS
UO-31 renal = test system: UO-31 renal
LOX IMVI melanoma = test system: LOX IMVI melanoma
PC-3 prostate = test system: PC-3 prostate
KM12 colon = test system: KM12 colon
SF-539 CNS = test system: SF-539 CNS
HCT-15 colon = test system: HCT-15 colon
HCC-2998 colon = test system: HCC-2998 colon
A498 renal = test system: A498 renal
OVCAR-8 ovarian = test system: OVCAR-8 ovarian
BT-549 breast = test system: BT-549 breast
NCI-H522 lung = test system: NCI-H522 lung
EKVX NSCLC = test system: EKVX NSCLC
TK-10 renal = test system: TK-10 renal

C=CCNc1nc2c(N)ncnc2s1
TGI (MOLT-4 leukemia): > 10000 nM | TGI (OVCAR-5 ovarian): > 10000 nM | TGI (NCI-H23 lung): > 10000 nM | TGI (CCRF-CEM leukemia): > 10000 nM | TGI (HOP-62 NSCLC): > 10000 nM | TGI (SNB-75 CNS): > 10000 nM | TGI (SF-268 CNS): > 10000 nM | TGI (HL-60(TB) leukemia): > 10000 nM | TGI (MDA-MB-435): > 10000 nM | TGI (RPMI-8226 leukemia): > 10000 nM | TGI (SK-MEL-2 melanoma): > 10000 nM | TGI (OVCAR-4 ovarian): > 10000 nM | TGI (RXF 393 renal): > 10000 nM | TGI (ACHN renal): > 10000 nM | TGI (NCI/ADR-RES ovarian): > 10000 nM | TGI (M14 melanoma): > 10000 nM | TGI (SK-MEL-28 melanoma): > 10000 nM | TGI (T-47D breast): > 10000 nM | TGI (K-562 leukemia): > 10000 nM | TGI (MALME-3M melanoma): > 10000 nM | TGI (NCI-H460 lung): > 10000 nM | TGI (SR leukemia): > 10000 nM | TGI (U251 CNS): > 10000 nM | TGI (SW-620 colon): > 10000 nM | TGI (HOP-92 NSCLC): > 10000 nM | TGI (IGROV1 ovarian): > 10000 nM | TGI (786-0 renal): > 10000 nM | TGI (COLO 205 colon): > 10000 nM | TGI (A549 NSCLC): > 10000 nM | TGI (SK-OV-3 ovarian): > 10000 nM | TGI (CAKI-1 renal): > 10000 nM | TGI (SK-MEL-5 melanoma): > 10000 nM | TGI (MCF7 breast): > 10000 nM | TGI (UACC-62 melanoma): > 10000 nM

CN1c2cccc[c]2[Sn]([CH3])([CH3])[c]2ccccc21
GI50 (OVCAR-3 ovarian): < 11.5 nM | TGI (OVCAR-3 ovarian): < 22.4 nM | GI50 (HCT-116 colon): < 10.7 nM | TGI (HCT-116 colon): < 16.1 nM | GI50 (MOLT-4 leukemia): 10.1 nM | TGI (MOLT-4 leukemia): 936 nM | GI50 (SN12C renal): < 13.8 nM | TGI (SN12C renal): 116 nM | GI50 (MDA-MB-231 breast): < 13.2 nM | TGI (MDA-MB-231 breast): 165 nM | GI50 (HS 578T breast): 16.6 nM | TGI (HS 578T breast): 683 nM | GI50 (SNB-19 CNS): 21.2 nM | TGI (SNB-19 CNS): 215 nM | GI50 (OVCAR-5 ovarian): < 11.5 nM | TGI (OVCAR-5 ovarian): 264 nM | GI50 (NCI-H23 lung): < 10 nM | TGI (NCI-H23 lung): 67.7 nM | GI50 (CCRF-CEM leukemia): < 10 nM | TGI (CCRF-CEM leukemia): 119 nM | GI50 (NCI-H226 lung): < 13.8 nM | TGI (NCI-H226 lung): 132 nM | GI50 (DU-145 prostate): < 13.1 nM | TGI (DU-145 prostate): 98.8 nM | GI50 (HOP-62 NSCLC): < 13.7 nM | TGI (HOP-62 NSCLC): 71.4 nM | GI50 (SNB-75 CNS): < 14.2 nM | TGI (SNB-75 CNS): 192 nM | GI50 (SF-268 CNS): < 17.8 nM | TGI (SF-268 CNS): 165 nM | GI50 (HL-60(TB) leukemia): < 10 nM | TGI (HL-60(TB) leukemia): 56.9 nM | GI50 (MDA-MB-435): < 10 nM | TGI (MDA-MB-435): 29.1 nM | GI50 (UACC-257 melanoma): < 10 nM | TGI (UACC-257 melanoma): < 21.7 nM | GI50 (RPMI-8226 leukemia): < 11.9 nM | TGI (RPMI-8226 leukemia): 31.6 nM | GI50 (HT29 colon): < 12 nM | TGI (HT29 colon): < 24.9 nM | GI50 (SK-MEL-2 melanoma): < 20.9 nM | TGI (SK-MEL-2 melanoma): 180 nM | GI50 (OVCAR-4 ovarian): < 12.1 nM | TGI (OVCAR-4 ovarian): 232 nM | GI50 (RXF 393 renal): 27.9 nM | TGI (RXF 393 renal): 202 nM | GI50 (SF-295 CNS): < 16.5 nM | TGI (SF-295 CNS): < 34 nM | GI50 (ACHN renal): < 15.5 nM | TGI (ACHN renal): 170 nM | GI50 (NCI/ADR-RES ovarian): 13.2 nM | TGI (NCI/ADR-RES ovarian): 49.1 nM | GI50 (M14 melanoma): < 14.8 nM | TGI (M14 melanoma): 30.5 nM | GI50 (SK-MEL-28 melanoma): 113 nM | TGI (SK-MEL-28 melanoma): 303 nM | GI50 (UO-31 renal): 37.4 nM | TGI (UO-31 renal): 182 nM | GI50 (LOX IMVI melanoma): 10.7 nM | TGI (LOX IMVI melanoma): 30.4 nM | GI50 (PC-3 prostate): 19.1 nM | TGI (PC-3 prostate): 154 nM | GI50 (K-562 leukemia): < 10 nM | TGI (K-562 leukemia): 2130 nM | GI50 (MALME-3M melanoma): < 23.8 nM | TGI (MALME-3M melanoma): 226 nM | GI50 (NCI-H460 lung): < 10 nM | TGI (NCI-H460 lung): 12.6 nM | GI50 (KM12 colon): < 10 nM | TGI (KM12 colon): < 16.9 nM | GI50 (SF-539 CNS): < 11 nM | TGI (SF-539 CNS): 47.3 nM | GI50 (HCT-15 colon): < 12.5 nM | TGI (HCT-15 colon): 116 nM | GI50 (SR leukemia): < 10 nM | TGI (SR leukemia): 38.7 nM | GI50 (HCC-2998 colon): < 10 nM | TGI (HCC-2998 colon): 24.7 nM | GI50 (A498 renal): 101 nM | TGI (A498 renal): 255 nM | GI50 (OVCAR-8 ovarian): < 13.4 nM | TGI (OVCAR-8 ovarian): < 23 nM | GI50 (U251 CNS): < 16 nM | TGI (U251 CNS): 134 nM | GI50 (SW-620 colon): 19 nM | TGI (SW-620 colon): 67.5 nM | GI50 (BT-549 breast): < 10 nM | TGI (BT-549 breast): 165 nM | GI50 (HOP-92 NSCLC): 10 nM | TGI (HOP-92 NSCLC): 104 nM | GI50 (IGROV1 ovarian): < 16.6 nM | TGI (IGROV1 ovarian): 140 nM | GI50 (NCI-H522 lung): 10.2 nM | TGI (NCI-H522 lung): 26.2 nM | GI50 (786-0 renal): < 14 nM | TGI (786-0 renal): 124 nM | GI50 (EKVX NSCLC): < 10 nM | TGI (EKVX NSCLC): < 24.9 nM | GI50 (COLO 205 colon): 15 nM | TGI (COLO 205 colon): 57.2 nM | GI50 (A549 NSCLC): < 13.2 nM | TGI (A549 NSCLC): 93.2 nM | GI50 (SK-OV-3 ovarian): < 14.4 nM | TGI (SK-OV-3 ovarian): < 32.6 nM | GI50 (CAKI-1 renal): 10 nM | TGI (CAKI-1 renal): < 35.6 nM | GI50 (TK-10 renal): < 19.2 nM | TGI (TK-10 renal): 135 nM | GI50 (SK-MEL-5 melanoma): < 10 nM | TGI (SK-MEL-5 melanoma): 23 nM | GI50 (MCF7 breast): < 10 nM | GI50 (UACC-62 melanoma): < 14.7 nM | TGI (UACC-62 melanoma): 113 nM
